From the OligoGym collection
HELM strings list units from the 5' end as sugar, base in round brackets, then linkage (d deoxyribose, r ribose, m 2'-O-methyl, p phosphodiester). Strings are as the collection lists them; they lack the last nucleoside at the 3' end of the tested compound. [moe] = 2'-O-(2-methoxyethyl) (MOE); [sp] = phosphorothioate linkage; [m5C] = 5-methylcytosine

Target: ATXN2
Test: mouse, dose not given
Details: ASO

Row | Substance | 3 h FOB score [score 0-7]
1 | RNA1{[moe](G)[sp].[moe](T)p.[moe](A)p.[moe](T)p.[moe](G)p.d(T)[sp].d(T)[sp].d(T)[sp].d(G)[sp].d(T)[sp].d([m5C])[sp].d(T)[sp].d(G)[sp].d(T)[sp].d([m5C])[sp].[moe](T)p.[moe](T)p.[moe](A)[sp].[moe](T)}$$$$ (last 3' nucleoside missing) | 6
2 | RNA1{[moe](G)[sp].[moe](T)p.[moe](A)p.[moe](T)p.[moe](T)p.d(T)[sp].d(T)[sp].d(T)[sp].d([m5C])[sp].d(T)[sp].d(T)[sp].d([m5C])[sp].d([m5C])[sp].d(T)[sp].d([m5C])[sp].[moe](A)p.[moe]([m5C])p.[moe](T)[sp].[moe]([m5C])}$$$$ (last 3' nucleoside missing) | 3.25
3 | RNA1{[moe](G)[sp].[moe](T)p.[moe](A)p.[moe](T)p.[moe]([m5C])p.d(A)[sp].d(T)[sp].d(A)[sp].d(T)[sp].d(A)[sp].d(T)[sp].d(T)[sp].d(T)[sp].d([m5C])[sp].d(T)[sp].[moe]([m5C])p.[moe](A)p.[moe](G)[sp].[moe]([m5C])}$$$$ (last 3' nucleoside missing) | 2.25
4 | RNA1{[moe](G)[sp].[moe](T)p.[moe](A)p.[moe]([m5C])p.[moe](A)p.d(T)[sp].d(T)[sp].d(T)[sp].d(T)[sp].d(A)[sp].d(A)[sp].d([m5C])[sp].d([m5C])[sp].d([m5C])[sp].d(T)[sp].[moe](T)p.[moe](T)p.[moe](G)[sp].[moe](A)}$$$$ (last 3' nucleoside missing) | 2.5
5 | RNA1{[moe](G)[sp].[moe](T)p.[moe](A)p.[moe]([m5C])p.[moe](A)p.d([m5C])[sp].d(A)[sp].d(G)[sp].d(T)[sp].d(T)[sp].d(T)[sp].d([m5C])[sp].d(A)[sp].d([m5C])[sp].d(T)[sp].[moe](A)p.[moe](G)p.[moe](G)[sp].[moe](T)}$$$$ (last 3' nucleoside missing) | 3
6 | RNA1{[moe](G)[sp].[moe](T)p.[moe](A)p.[moe]([m5C])p.[moe](T)[sp].d(T)[sp].d(T)[sp].d(T)[sp].d([m5C])[sp].d(T)[sp].d([m5C])[sp].d(A)[sp].d(T)[sp].[moe](G)p.[moe](T)p.[moe](G)[sp].[moe]([m5C])}$$$$ (last 3' nucleoside missing) | 1.25
7 | RNA1{[moe](G)[sp].[moe](T)p.[moe](A)p.[moe]([m5C])p.[moe](T)[sp].d(T)[sp].d([m5C])[sp].d(A)[sp].d([m5C])[sp].d(A)[sp].d(T)[sp].d(T)[sp].d(T)[sp].[moe](G)p.[moe](G)p.[moe](A)[sp].[moe](G)}$$$$ (last 3' nucleoside missing) | 1
8 | RNA1{[moe](G)[sp].[moe](T)p.[moe](A)p.[moe]([m5C])p.[moe](T)p.d(T)[sp].d(T)[sp].d(T)[sp].d([m5C])[sp].d(T)[sp].d([m5C])[sp].d(A)[sp].d(T)[sp].d(G)[sp].d(T)[sp].[moe](G)p.[moe]([m5C])p.[moe](G)[sp].[moe](G)}$$$$ (last 3' nucleoside missing) | 1
9 | RNA1{[moe](G)[sp].[moe](T)p.[moe](A)p.[moe]([m5C])p.[moe](T)p.d(T)[sp].d([m5C])[sp].d(A)[sp].d([m5C])[sp].d(A)[sp].d(T)[sp].d(T)[sp].d(T)[sp].d(G)[sp].d(G)[sp].[moe](A)p.[moe](G)p.[moe]([m5C])[sp].[moe]([m5C])}$$$$ (last 3' nucleoside missing) | 1
10 | RNA1{[moe](G)[sp].[moe](T)p.[moe](G)p.[moe](A)p.[moe](G)p.d(T)[sp].d(T)[sp].d([m5C])[sp].d(A)[sp].d([m5C])[sp].d([m5C])[sp].d(T)[sp].d(G)[sp].d([m5C])[sp].d(A)[sp].[moe](T)p.[moe]([m5C])p.[moe]([m5C])[sp].[moe]([m5C])}$$$$ (last 3' nucleoside missing) | 2.25
11 | RNA1{[moe](G)[sp].[moe](T)p.[moe](G)p.[moe](A)p.[moe](T)p.[moe](G)p.d(T)[sp].d(T)[sp].d(T)[sp].d([m5C])[sp].d(A)[sp].d(T)[sp].d(T)[sp].d(G)[sp].d(G)[sp].d(G)[sp].[moe](T)p.[moe](T)[sp].[moe](T)}$$$$ (last 3' nucleoside missing) | 4
12 | RNA1{[moe](G)[sp].[moe](T)p.[moe](G)p.[moe](A)p.[moe](T)p.d(G)[sp].d(T)[sp].d(T)[sp].d(T)[sp].d([m5C])[sp].d(A)[sp].d(T)[sp].d(T)[sp].d(G)[sp].d(G)[sp].[moe](G)p.[moe](T)p.[moe](T)[sp].[moe](T)}$$$$ (last 3' nucleoside missing) | 4.5
13 | RNA1{[moe](G)[sp].[moe](T)p.[moe](G)p.[moe](A)p.d(T)[sp].d(G)[sp].d(T)[sp].d(T)[sp].d(T)[sp].d([m5C])[sp].d(A)[sp].d(T)[sp].d(T)[sp].d(G)[sp].[moe](G)p.[moe](G)p.[moe](T)p.[moe](T)[sp].[moe](T)}$$$$ (last 3' nucleoside missing) | 6
14 | RNA1{[moe](G)[sp].[moe](T)p.[moe](G)p.[moe](G)p.[moe](T)[sp].d(G)[sp].d(T)[sp].d(G)[sp].d([m5C])[sp].d(G)[sp].d([m5C])[sp].d(A)[sp].d(T)[sp].[moe](G)p.[moe](T)p.[moe](A)[sp].[moe](G)}$$$$ (last 3' nucleoside missing) | 6.75
15 | RNA1{[moe](G)[sp].[moe](T)p.[moe](G)p.[moe](G)p.[moe](T)p.d(G)[sp].d(G)[sp].d(T)[sp].d(G)[sp].d(T)[sp].d(G)[sp].d([m5C])[sp].d(G)[sp].d([m5C])[sp].d(A)[sp].[moe](T)p.[moe](G)p.[moe](T)[sp].[moe](A)}$$$$ (last 3' nucleoside missing) | 7
16 | RNA1{[moe](G)[sp].[moe](T)p.[moe](G)p.[moe](G)p.[moe](T)p.d(G)[sp].d(T)[sp].d(G)[sp].d([m5C])[sp].d(G)[sp].d([m5C])[sp].d(A)[sp].d(T)[sp].d(G)[sp].d(T)[sp].[moe](A)p.[moe](G)p.[moe](A)[sp].[moe]([m5C])}$$$$ (last 3' nucleoside missing) | 5.5
17 | RNA1{[moe](G)[sp].[moe](T)p.[moe](G)p.[moe](G)p.[moe]([m5C])p.d(T)[sp].d(T)[sp].d(T)[sp].d(A)[sp].d(A)[sp].d(A)[sp].d(A)[sp].d(A)[sp].d([m5C])[sp].d(T)[sp].[moe](A)p.[moe](G)p.[moe](G)[sp].[moe](T)}$$$$ (last 3' nucleoside missing) | 0
18 | RNA1{[moe](G)[sp].[moe](T)p.[moe](G)p.[moe](T)p.[moe](T)p.d(G)[sp].d([m5C])[sp].d(A)[sp].d([m5C])[sp].d(A)[sp].d(T)[sp].d(A)[sp].d(G)[sp].d(G)[sp].d(T)[sp].[moe](T)p.[moe](A)p.[moe](G)[sp].[moe](A)}$$$$ (last 3' nucleoside missing) | 6.5
19 | RNA1{[moe](G)[sp].[moe](T)p.[moe](G)p.[moe](T)p.[moe](T)p.d(T)[sp].d(A)[sp].d(A)[sp].d(T)[sp].d(T)[sp].d(T)[sp].d(G)[sp].d(T)[sp].d(A)[sp].d(A)[sp].[moe]([m5C])p.[moe](T)p.[moe](A)[sp].[moe](G)}$$$$ (last 3' nucleoside missing) | 4
20 | RNA1{[moe](G)[sp].[moe](T)p.[moe](G)p.[moe](T)p.[moe](T)p.d(T)[sp].d(G)[sp].d(G)[sp].d(G)[sp].d(A)[sp].d(T)[sp].d(G)[sp].d([m5C])[sp].d(T)[sp].d(T)[sp].[moe]([m5C])p.[moe](A)p.[moe](G)[sp].[moe](A)}$$$$ (last 3' nucleoside missing) | 5.5
21 | RNA1{[moe](G)[sp].[moe](T)p.[moe](G)p.[moe](T)p.[moe](T)p.d([m5C])[sp].d(A)[sp].d(G)[sp].d(T)[sp].d(A)[sp].d(T)[sp].d(A)[sp].d(G)[sp].d(A)[sp].d(T)[sp].[moe](T)p.[moe](A)p.[moe](T)[sp].[moe]([m5C])}$$$$ (last 3' nucleoside missing) | 3.75
22 | RNA1{[moe](G)[sp].[moe](T)p.[moe](G)p.[moe](T)p.[moe](T)p.d([m5C])[sp].d(A)[sp].d(T)[sp].d(G)[sp].d(A)[sp].d([m5C])[sp].d(T)[sp].d(T)[sp].d(T)[sp].d([m5C])[sp].[moe](A)p.[moe](A)p.[moe](G)[sp].[moe](G)}$$$$ (last 3' nucleoside missing) | 3.5
23 | RNA1{[moe](G)[sp].[moe](T)p.[moe](T)p.[moe](A)p.[moe]([m5C])[sp].d(T)[sp].d(G)[sp].d(T)[sp].d(T)[sp].d(T)[sp].d([m5C])[sp].d(G)[sp].d(A)[sp].[moe]([m5C])p.[moe]([m5C])p.[moe](T)[sp].[moe]([m5C])}$$$$ (last 3' nucleoside missing) | 6
24 | RNA1{[moe](G)[sp].[moe](T)p.[moe](T)p.[moe](A)p.[moe]([m5C])p.[moe](T)p.d(G)[sp].d(T)[sp].d(T)[sp].d(T)[sp].d([m5C])[sp].d(G)[sp].d(A)[sp].d([m5C])[sp].d([m5C])[sp].d(T)[sp].[moe]([m5C])p.[moe](T)[sp].[moe](G)}$$$$ (last 3' nucleoside missing) | 5
25 | RNA1{[moe](G)[sp].[moe](T)p.[moe](T)p.[moe](A)p.[moe]([m5C])p.d(T)[sp].d(G)[sp].d(T)[sp].d(T)[sp].d(T)[sp].d([m5C])[sp].d(G)[sp].d(A)[sp].d([m5C])[sp].d([m5C])[sp].[moe](T)p.[moe]([m5C])p.[moe](G)[sp].[moe](G)}$$$$ (last 3' nucleoside missing) | 4.5
26 | RNA1{[moe](G)[sp].[moe](T)p.[moe](T)p.[moe](A)p.[moe]([m5C])p.d(T)[sp].d(G)[sp].d(T)[sp].d(T)[sp].d(T)[sp].d([m5C])[sp].d(G)[sp].d(A)[sp].d([m5C])[sp].d([m5C])[sp].[moe](T)p.[moe]([m5C])p.[moe](T)[sp].[moe](G)}$$$$ (last 3' nucleoside missing) | 6.5
27 | RNA1{[moe](G)[sp].[moe](T)p.[moe](T)p.[moe](A)p.d([m5C])[sp].d(T)[sp].d(G)[sp].d(T)[sp].d(T)[sp].d(T)[sp].d([m5C])[sp].d(G)[sp].d(A)[sp].d([m5C])[sp].[moe]([m5C])p.[moe](T)p.[moe]([m5C])p.[moe](T)[sp].[moe](G)}$$$$ (last 3' nucleoside missing) | 6.5
